# System: Escherichia coli
# Experiment: Antibacterial activity against Escherichia coli NCIM 2256 incubated for 24 hrs
# Assay type: functional
row,Structure (SMILES),MIC [µg/mL]
1,O=c1cc(OCc2cn(Cc3ccc([N+](=O)[O-])cc3)nn2)c2ccccc2o1,2
2,O=c1cc(OCc2cn(Cc3cccc(Cl)c3)nn2)c2ccccc2o1,2
3,Cc1cc(OCc2cn(Cc3ccc([N+](=O)[O-])cc3)nn2)cc2oc(=O)ccc12,2
4,O=c1cc(OCc2cn(Cc3cccc([N+](=O)[O-])c3)nn2)c2ccccc2o1,2
5,O=c1cc(OCc2cn(Cc3ccc(Cl)cc3)nn2)c2ccccc2o1,2
6,O=c1cc(OCc2cn(Cc3ccc(Br)cc3)nn2)c2ccccc2o1,2
7,Cc1cc(OCc2cn(Cc3ccc(Br)cc3)nn2)cc2oc(=O)ccc12,2
8,Cc1cc(OCc2cn(Cc3ccccc3)nn2)cc2oc(=O)ccc12,2

# System: Klebsiella pneumoniae
# Experiment: Antibacterial activity against Klebsiella pneumonia RCMB 010058 by broth dilution method
# Assay type: functional
row,Structure (SMILES),MIC [µg/mL]
1,OCCSc1nnc(-c2nnn(-c3ccccc3Cl)c2-c2nnc(SCCO)o2)o1,4
2,CC(=O)OCCSc1nnc(-c2nnn(-c3ccccc3Cl)c2-c2nnc(SCCOC(C)=O)o2)o1,31.2
3,OCCCSc1nnc(-c2nnn(-c3ccccc3Cl)c2-c2nnc(SCCCO)o2)o1,4

# System: Micrococcus luteus
# Experiment: Antibacterial activity against Micrococcus Luteus ATCC 398 incubated for 24 hrs
# Assay type: functional
row,Structure (SMILES),MIC [µg/mL]
1,O=c1cc(OCc2cn(Cc3ccc([N+](=O)[O-])cc3)nn2)c2ccccc2o1,2
2,O=c1cc(OCc2cn(Cc3cccc(Cl)c3)nn2)c2ccccc2o1,2
3,Cc1cc(OCc2cn(Cc3ccc([N+](=O)[O-])cc3)nn2)cc2oc(=O)ccc12,2
4,O=c1cc(OCc2cn(Cc3cccc([N+](=O)[O-])c3)nn2)c2ccccc2o1,2
5,O=c1cc(OCc2cn(Cc3ccc(Cl)cc3)nn2)c2ccccc2o1,2
6,O=c1cc(OCc2cn(Cc3ccc(Br)cc3)nn2)c2ccccc2o1,2
7,Cc1cc(OCc2cn(Cc3ccc(Br)cc3)nn2)cc2oc(=O)ccc12,2
8,Cc1cc(OCc2cn(Cc3ccccc3)nn2)cc2oc(=O)ccc12,2

# System: Pseudomonas aeruginosa
# Experiment: Antibacterial activity against Pseudomonas aeruginosa RCMB 010043 by broth dilution method
# Assay type: functional
row,Structure (SMILES),MIC [µg/mL]
1,OCCSc1nnc(-c2nnn(-c3ccccc3Cl)c2-c2nnc(SCCO)o2)o1,4
2,CC(=O)OCCSc1nnc(-c2nnn(-c3ccccc3Cl)c2-c2nnc(SCCOC(C)=O)o2)o1,31.2
3,OCCCSc1nnc(-c2nnn(-c3ccccc3Cl)c2-c2nnc(SCCCO)o2)o1,4

# System: Curvularia lunata
# Experiment: Antifungal activity against Curvularia lunata NCIM 1131 incubated for 48 hrs
# Assay type: functional
row,Structure (SMILES),MIC [µg/mL]
1,O=c1cc(OCc2cn(Cc3ccc([N+](=O)[O-])cc3)nn2)c2ccccc2o1,2
2,O=c1cc(OCc2cn(Cc3cccc(Cl)c3)nn2)c2ccccc2o1,2
3,Cc1cc(OCc2cn(Cc3ccc([N+](=O)[O-])cc3)nn2)cc2oc(=O)ccc12,2
4,O=c1cc(OCc2cn(Cc3cccc([N+](=O)[O-])c3)nn2)c2ccccc2o1,2
5,O=c1cc(OCc2cn(Cc3ccc(Cl)cc3)nn2)c2ccccc2o1,2
6,O=c1cc(OCc2cn(Cc3ccc(Br)cc3)nn2)c2ccccc2o1,2
7,Cc1cc(OCc2cn(Cc3ccc(Br)cc3)nn2)cc2oc(=O)ccc12,2
8,Cc1cc(OCc2cn(Cc3ccccc3)nn2)cc2oc(=O)ccc12,2

# System: Aspergillus niger
# Experiment: Antifungal activity against Aspergillus niger NCIM 1196 incubated for 48 hrs
# Assay type: functional
row,Structure (SMILES),MIC [µg/mL]
1,O=c1cc(OCc2cn(Cc3ccc([N+](=O)[O-])cc3)nn2)c2ccccc2o1,2
2,O=c1cc(OCc2cn(Cc3cccc(Cl)c3)nn2)c2ccccc2o1,2
3,Cc1cc(OCc2cn(Cc3ccc([N+](=O)[O-])cc3)nn2)cc2oc(=O)ccc12,2
4,O=c1cc(OCc2cn(Cc3cccc([N+](=O)[O-])c3)nn2)c2ccccc2o1,2
5,O=c1cc(OCc2cn(Cc3ccc(Cl)cc3)nn2)c2ccccc2o1,2
6,O=c1cc(OCc2cn(Cc3ccc(Br)cc3)nn2)c2ccccc2o1,2
7,Cc1cc(OCc2cn(Cc3ccc(Br)cc3)nn2)cc2oc(=O)ccc12,2
8,Cc1cc(OCc2cn(Cc3ccccc3)nn2)cc2oc(=O)ccc12,2

# System: Pseudomonas fluorescens
# Experiment: Antibacterial activity against Pseudomonas fluorescens NCIM 2173 incubated for 24 hrs
# Assay type: functional
row,Structure (SMILES),MIC [µg/mL]
1,O=c1cc(OCc2cn(Cc3ccc([N+](=O)[O-])cc3)nn2)c2ccccc2o1,2
2,O=c1cc(OCc2cn(Cc3cccc(Cl)c3)nn2)c2ccccc2o1,2
3,Cc1cc(OCc2cn(Cc3ccc([N+](=O)[O-])cc3)nn2)cc2oc(=O)ccc12,2
4,O=c1cc(OCc2cn(Cc3cccc([N+](=O)[O-])c3)nn2)c2ccccc2o1,2
5,O=c1cc(OCc2cn(Cc3ccc(Cl)cc3)nn2)c2ccccc2o1,2
6,O=c1cc(OCc2cn(Cc3ccc(Br)cc3)nn2)c2ccccc2o1,2
7,Cc1cc(OCc2cn(Cc3ccc(Br)cc3)nn2)cc2oc(=O)ccc12,2
8,Cc1cc(OCc2cn(Cc3ccccc3)nn2)cc2oc(=O)ccc12,2

# System: Sphingomonas paucimobilis
# Experiment: Antibacterial activity against Flavobacterium devorans ATCC 10829 incubated for 24 hrs
# Assay type: functional
row,Structure (SMILES),MIC [µg/mL]
1,O=c1cc(OCc2cn(Cc3ccc([N+](=O)[O-])cc3)nn2)c2ccccc2o1,2
2,O=c1cc(OCc2cn(Cc3cccc(Cl)c3)nn2)c2ccccc2o1,2
3,Cc1cc(OCc2cn(Cc3ccc([N+](=O)[O-])cc3)nn2)cc2oc(=O)ccc12,2
4,O=c1cc(OCc2cn(Cc3cccc([N+](=O)[O-])c3)nn2)c2ccccc2o1,2
5,O=c1cc(OCc2cn(Cc3ccc(Cl)cc3)nn2)c2ccccc2o1,2
6,O=c1cc(OCc2cn(Cc3ccc(Br)cc3)nn2)c2ccccc2o1,2
7,Cc1cc(OCc2cn(Cc3ccc(Br)cc3)nn2)cc2oc(=O)ccc12,2
8,Cc1cc(OCc2cn(Cc3ccccc3)nn2)cc2oc(=O)ccc12,2

# System: Escherichia coli
# Experiment: Antibacterial activity against Escherichia coli RCMB 010052 by broth dilution method
# Assay type: functional
row,Structure (SMILES),MIC [µg/mL]
1,OCCSc1nnc(-c2nnn(-c3ccccc3Cl)c2-c2nnc(SCCO)o2)o1,4
2,CC(=O)OCCSc1nnc(-c2nnn(-c3ccccc3Cl)c2-c2nnc(SCCOC(C)=O)o2)o1,31.2
3,OCCCSc1nnc(-c2nnn(-c3ccccc3Cl)c2-c2nnc(SCCCO)o2)o1,4

# System: Streptococcus pneumoniae
# Experiment: Antibacterial activity against Streptococcus pneumoniae RCMB 010010 by broth dilution method
# Assay type: functional
row,Structure (SMILES),MIC [µg/mL]
1,OCCSc1nnc(-c2nnn(-c3ccccc3Cl)c2-c2nnc(SCCO)o2)o1,4
2,CC(=O)OCCSc1nnc(-c2nnn(-c3ccccc3Cl)c2-c2nnc(SCCOC(C)=O)o2)o1,31.2
3,OCCCSc1nnc(-c2nnn(-c3ccccc3Cl)c2-c2nnc(SCCCO)o2)o1,4

# System: Staphylococcus aureus
# Experiment: Antibacterial activity against Staphylococcus aureus RCMB 010025 by broth dilution method
# Assay type: functional
row,Structure (SMILES),MIC [µg/mL]
1,OCCSc1nnc(-c2nnn(-c3ccccc3Cl)c2-c2nnc(SCCO)o2)o1,4
2,CC(=O)OCCSc1nnc(-c2nnn(-c3ccccc3Cl)c2-c2nnc(SCCOC(C)=O)o2)o1,31.2
3,OCCCSc1nnc(-c2nnn(-c3ccccc3Cl)c2-c2nnc(SCCCO)o2)o1,4

# System: Bacillus subtilis
# Experiment: Antibacterial activity against Bacillus subtilis RCMB 010067 by broth dilution method
# Assay type: functional
row,Structure (SMILES),MIC [µg/mL]
1,OCCSc1nnc(-c2nnn(-c3ccccc3Cl)c2-c2nnc(SCCO)o2)o1,4
2,CC(=O)OCCSc1nnc(-c2nnn(-c3ccccc3Cl)c2-c2nnc(SCCOC(C)=O)o2)o1,31.2
3,OCCCSc1nnc(-c2nnn(-c3ccccc3Cl)c2-c2nnc(SCCCO)o2)o1,4

# System: Bacillus cereus
# Experiment: Antibacterial activity against Bacillus cereus ATCC 6630 incubated for 24 hrs
# Assay type: functional
row,Structure (SMILES),MIC [µg/mL]
1,O=c1cc(OCc2cn(Cc3ccc([N+](=O)[O-])cc3)nn2)c2ccccc2o1,2
2,O=c1cc(OCc2cn(Cc3cccc(Cl)c3)nn2)c2ccccc2o1,2
3,Cc1cc(OCc2cn(Cc3ccc([N+](=O)[O-])cc3)nn2)cc2oc(=O)ccc12,2
4,O=c1cc(OCc2cn(Cc3cccc([N+](=O)[O-])c3)nn2)c2ccccc2o1,2
5,O=c1cc(OCc2cn(Cc3ccc(Cl)cc3)nn2)c2ccccc2o1,2
6,O=c1cc(OCc2cn(Cc3ccc(Br)cc3)nn2)c2ccccc2o1,2
7,Cc1cc(OCc2cn(Cc3ccc(Br)cc3)nn2)cc2oc(=O)ccc12,2
8,Cc1cc(OCc2cn(Cc3ccccc3)nn2)cc2oc(=O)ccc12,2

# System: Penicillium chrysogenum
# Experiment: Antifungal activity against Penicillium chrysogenum NCIM 723 incubated for 48 hrs
# Assay type: functional
row,Structure (SMILES),MIC [µg/mL]
1,O=c1cc(OCc2cn(Cc3ccc([N+](=O)[O-])cc3)nn2)c2ccccc2o1,2
2,O=c1cc(OCc2cn(Cc3cccc(Cl)c3)nn2)c2ccccc2o1,2
3,Cc1cc(OCc2cn(Cc3ccc([N+](=O)[O-])cc3)nn2)cc2oc(=O)ccc12,2
4,O=c1cc(OCc2cn(Cc3cccc([N+](=O)[O-])c3)nn2)c2ccccc2o1,2
5,O=c1cc(OCc2cn(Cc3ccc(Cl)cc3)nn2)c2ccccc2o1,2
6,O=c1cc(OCc2cn(Cc3ccc(Br)cc3)nn2)c2ccccc2o1,2
7,Cc1cc(OCc2cn(Cc3ccc(Br)cc3)nn2)cc2oc(=O)ccc12,2
8,Cc1cc(OCc2cn(Cc3ccccc3)nn2)cc2oc(=O)ccc12,2

# System: Staphylococcus aureus
# Experiment: Antibacterial activity against Staphylococcus aureus ATCC 29737 incubated for 24 hrs
# Assay type: functional
row,Structure (SMILES),MIC [µg/mL]
1,O=c1cc(OCc2cn(Cc3ccc([N+](=O)[O-])cc3)nn2)c2ccccc2o1,2
2,O=c1cc(OCc2cn(Cc3cccc(Cl)c3)nn2)c2ccccc2o1,2
3,Cc1cc(OCc2cn(Cc3ccc([N+](=O)[O-])cc3)nn2)cc2oc(=O)ccc12,2
4,O=c1cc(OCc2cn(Cc3cccc([N+](=O)[O-])c3)nn2)c2ccccc2o1,2
5,O=c1cc(OCc2cn(Cc3ccc(Cl)cc3)nn2)c2ccccc2o1,2
6,O=c1cc(OCc2cn(Cc3ccc(Br)cc3)nn2)c2ccccc2o1,2
7,Cc1cc(OCc2cn(Cc3ccc(Br)cc3)nn2)cc2oc(=O)ccc12,2
8,Cc1cc(OCc2cn(Cc3ccccc3)nn2)cc2oc(=O)ccc12,2
